# Source: US20130210057A1, “USE OF LABEL-FREE BIOSENSORS TO UNDERSTAND AND IDENTIFY TREATMENT FOR CANCER” (CORNING INCORPORATED, priority 2012, published 2013)
# “Also recorded” adds a separate entry of the source. Where two headings read alike, the source gives them in different places. Ends that are not written are not given here.
# Experiments:
# [1] = system: HCT116 parental cell line; test: Label-free RWG biosensor DMR assay; assay type: cell-based, human; conditions: for kinase inhibitor drug-induced DMR signal: 16 μM
# Excerpt: (§1) EPIC® beta version wavelength interrogation system (Corning Inc., NY) was used for whole cell sensing. This system consists of a temperature-control unit, an optical detection unit, and an on-board liquid handling unit with robotics. The detection unit is centered on integrated fiber optics, and enables kinetic measures of cellular responses with a time interval of ˜15 sec. Also EPIC® commercial systems were used, with a liquid handler accessory attached to EPIC® reader system. Also, an Epic® RWG imager can be used.
# (§2) The resonant waveguide grating (RWG) biosensor is capable of detecting minute changes in local index of refraction near the sensor surface and the waveguide thin film having gratings provide a cell culture surface. Since the local index of refraction within a cell is a function of density and its distribution of biomass (e.g., proteins, molecular complexes), the biosensor exploits its evanescent wave to non-invasively detect ligand-induced Dynamic Mass Redistribution (DMR) in native cells. When a cell is stimulated, it responds. That response is a redistribution of biomass in the cell. Upon stimulation, proteins, protein complexes, and/or organelles in the cells move. The evanescent wave extends into the cells and exponentially decays over distance, leading to a characteristic sensing depth of ˜150 nm. Any optical response mediated through receptor activation only represents an average over the portion of the cell that the evanescent wave is sampling. The aggregation of many cellular events downstream to the receptor activation leads to a DMR signal having characteristic kinetics and amplitudes.
# (§3) All assays were carried out at a controlled temperature (28° C.). At least two independent sets of experiments, each with at least three replicates, were performed.
# [2] = system: HCT116-PTEN Null cell line; test: Label-free RWG biosensor DMR assay; assay type: cell-based, human; conditions: for sensitivity of kinase inhibitor drug-induced DMR to PTEN deletion / kinase inhibitor drug-induced DMR signal: 16 μM; for sensitivity of kinase inhibitor drug-induced DMR to PTEN deletion: PTEN null vs parental; for kinase inhibitor drug-induced DMR signal: HCT116-PTEN null
# Excerpt: as §1, §2, §3
# HCT116 parental cells = test: cAMP-Glo assay; assay type: cell-based, human; conditions: 15 minutes incubation
# Procedure: (§4) Cells were cultured in the McCoy's 5a complete growth medium overnight. The next day cAMP-Glo assay was performed according to manufacturer's instruction (Promega, Cat# V1502). Briefly, cell culture medium was removed by flipping the plate. […] Luminescence was measured using Tecan Salim II plate reader.
# (§5) To screen endogenous receptors and their coupled signaling pathways, we first assembled a GPCR agonist focused library (Table 1). The library consists of 120 GPCR agonists covering over 150 known GPCRs, based on their known pharmacology including polypharmacology. For small molecule chemical agonists, the dose used was 10 micromolar. For peptide agonists, the dose used was 1 micromolar. For lipid agonists, the dose used was also 1 micromolar. For both peptides and lipids, these agonists were suspended in a solution containing 0.05% bovine […] to increase their stability.
# (§6) cAMP assays were employed to investigate endogenous Gs-coupled receptors. FIG. 2 is a graph illustrating cAMP accumulation induced by GPCR agonists. The percentage of cAMP level after normalized to the forskolin-induced cAMP increase was plotted as a function of GPCR agonists. PCT116 parental (squares) was compared with HCT116-PTEN Null (diamonds) cell line.
# HCT116 PTEN null cells = test: cAMP-Glo assay; assay type: cell-based, human; conditions: 15 minutes incubation
# Procedure: as §4, §5, §6
# [3] = system: IGF1-induced DMR in HCT116 parental cell line; test: DMR reporter assay: modulation of IGF1-induced DMR by kinase inhibitor pretreatment; conditions: 2 nM IGF1; for alteration of the late response of the IGF1 DMR (signal at 50 min poststimulation): about 1 hr pretreatment at different doses; for impact on the early P-DMR amplitude of the IGF1 DMR: about 1 hr pretreatment
# [4] = system: IGF1-induced DMR in HCT116-PTEN Null cell line; test: as above; conditions: 2 nM IGF1; for alteration of the late response of the IGF1 DMR (signal at 50 min poststimulation) / impact on the early P-DMR amplitude of the IGF1 DMR: HCT116-PTEN Null; for alteration of the late response of the IGF1 DMR (signal at 50 min poststimulation): about 1 hr pretreatment at different doses; for impact on the early P-DMR amplitude of the IGF1 DMR / potency to increase the late IGF1 response, PTEN-deleted vs parental cell line: about 1 hr pretreatment
molecule,measurement,setting,value
C=C[C@@]1(C)CC(=O)[C@]2(O)[C@@]3(C)[C@@H](O)CCC(C)(C)[C@@H]3[C@H](O)[C@H](OC(C)=O)[C@@]2(C)O1 [forskolin],DMR signal amplitude,"[1]; HCT116 parental, GPCR agonist library profiling, 3-45 min poststimulation",greater than 80 picometer
same,DMR signal amplitude,"[2]; HCT116-PTEN Null, GPCR agonist library profiling, 3-45 min poststimulation",greater than 80 picometer
"Adrenomedulin (YRQSMNNFQGLRSFGCRFGTCTVQKLAHQIYQFTDKDKDNVAPRSKISPQGY; ends and bridges not checked; cysteine pairing not given here; UniProt P35318 95-146, looked up) [peptide agonist of adrenomedulin receptor]",cAMP accumulation (normalized to forskolin-induced cAMP increase),HCT116 parental cells,detectable cAMP accumulation
same,cAMP accumulation (normalized to forskolin-induced cAMP increase),HCT116 PTEN null cells,detectable cAMP accumulation
"CNC[C@H](O)c1ccc(O)c(O)c1 [epinephrine, (−)epinephrine]",effect of pertussis toxin (PTx) pretreatment on the agonist DMR,[1],little effect
same,receptor / signaling pathway activated (pathway deconvolution of DMR with toxins),[1],primarily activates endogenous Gs-coupled beta1-adrenergic receptor
same,agonist DMR in PTEN deleted cell line compared to parental cell line (sensitivity to PTEN deletion),[2],greatly differed
same,effect of pertussis toxin (PTx) pretreatment on the agonist DMR,[2],little effect
same,receptor / signaling pathway activated (pathway deconvolution of DMR with toxins),[2],primarily activates endogenous Gs-coupled beta1-adrenergic receptor
CO[C@H]1C[C@@H]2CC[C@@H](C)[C@@](O)(O2)C(=O)C(=O)N2CCCC[C@H]2C(=O)O[C@H]([C@H](C)C[C@@H]2CC[C@@H](OCCO)[C@H](OC)C2)CC(=O)[C@H](C)/C=C(\C)[C@@H](O)[C@@H](OC)C(=O)[C@H](C)C[C@H](C)/C=C/C=C/C=C/1C [everolimus],kinase inhibitor drug-induced DMR signal,[1]; HCT116 parental,detectable DMR
same,sensitivity of kinase inhibitor drug-induced DMR to PTEN deletion,[2],suppressed or decreased the kinetics
"CCCCC[C@H](O)/C=C/[C@H]1[C@H](O)CC(=O)[C@@H]1C/C=C\CCCC(=O)O [PGE2, Peostaglandin E2]",cAMP accumulation (normalized to forskolin-induced cAMP increase),HCT116 parental cells,detectable cAMP accumulation
same,cAMP accumulation (normalized to forskolin-induced cAMP increase),HCT116 PTEN null cells,detectable cAMP accumulation
CNC(=O)c1cc(Oc2ccc(NC(=O)Nc3ccc(Cl)c(C(F)(F)F)c3)cc2)ccn1 [sorafenib],kinase inhibitor drug-induced DMR signal,[1]; HCT116 parental,did not result in any detectable DMR
same,kinase inhibitor drug-induced DMR signal,[2],did not result in any detectable DMR
Cc1ccc(NC(=O)c2ccc(CN3CCN(C)CC3)cc2)cc1Nc1nccc(-c2cccnc2)n1 [imatinib],alteration of the late response of the IGF1 DMR (signal at 50 min poststimulation),[3],dose-dependently increased
same,sensitivity of kinase inhibitor drug-induced DMR to PTEN deletion,[2],sensitive; also recorded: great sensitivity
IGF1: insulin growth factor-1 (IGF1),agonist-induced DMR signal,"[1]; HCT116 parental, untreated, 10 μM agonist (EGF, IGF1 1 μM)",robust DMR signal
same,agonist DMR in PTEN deleted cell line compared to parental cell line (sensitivity to PTEN deletion),"[2]; 10 μM agonist (EGF, IGF1 1 μM)",clear effects; also recorded: greater sensitivity
same,agonist-induced DMR signal,"[2]; HCT116-PTEN Null, untreated, 10 μM agonist (EGF, IGF1 1 μM)",robust DMR signal
"Nc1ncnc2c1ncn2[C@@H]1O[C@H](CO)[C@@H](O)[C@H]1O [adenosine, Adenosine]",effect of cholera toxin (CTx) pretreatment on the agonist DMR,[1],almost completely suppressed
same,receptor / signaling pathway activated (pathway deconvolution of DMR with toxins),"[1]; HCT116 parental, 10 μM agonist",primarily activates endogenous Gs-coupled adenosine A2B receptors
same,effect of pertussis toxin (PTx) pretreatment on the agonist DMR,"[1]; HCT116 parental, PTX 100 ng/ml overnight, 10 μM agonist",only accelerated
same,effect of cholera toxin (CTx) pretreatment on the agonist DMR,[2],almost completely suppressed
same,agonist DMR in PTEN deleted cell line compared to parental cell line (sensitivity to PTEN deletion),"[2]; 10 μM agonist (EGF, IGF1 1 μM)",greatly different
same,receptor / signaling pathway activated (pathway deconvolution of DMR with toxins),"[2]; HCT116-PTEN Null, 10 μM agonist",primarily activates endogenous Gs-coupled adenosine A2B receptors
same,effect of pertussis toxin (PTx) pretreatment on the agonist DMR,"[2]; HCT116-PTEN Null, PTX 100 ng/ml overnight, 10 μM agonist",only accelerated
CCNC(=O)[C@H]1O[C@@H](n2cnc3c(N)nc(NCCc4ccc(CCC(=O)O)cc4)nc32)[C@H](O)[C@@H]1O [CGS21680],cAMP accumulation (normalized to forskolin-induced cAMP increase),HCT116 parental cells,detectable cAMP accumulation
same,cAMP accumulation (normalized to forskolin-induced cAMP increase),HCT116 PTEN null cells,detectable cAMP accumulation
"Calcitonin (CGNLSTCMLGTYTQDFNKFHTFPQTAIGVGAP; ends and bridges not checked; cysteine pairing not given here; UniProt P01258 85-116, looked up) [peptide agonist of calcitonin receptor]",cAMP accumulation (normalized to forskolin-induced cAMP increase),HCT116 parental cells,detectable cAMP accumulation
same,cAMP accumulation (normalized to forskolin-induced cAMP increase),HCT116 PTEN null cells,detectable cAMP accumulation
"EGF: epidermal growth factor (EGF) (NSDSECPLSHDGYCLHDGVCMYIEALDKYACNCVVGYIGERCQYRDLKWWELR; Epidermal growth factor; UniProt P01133 971-1023, looked up)",agonist DMR in PTEN deleted cell line compared to parental cell line (sensitivity to PTEN deletion),"[2]; 10 μM agonist (EGF, IGF1 1 μM)",insensitive
"Vasoactive intestinal peptide (HSDAVFTDNYTRLRKQMAVKKYLNSILN; ends and bridges not checked; UniProt P01282 125-152, looked up) [VIP]",cAMP accumulation (normalized to forskolin-induced cAMP increase),HCT116 parental cells,detectable cAMP accumulation
same,cAMP accumulation (normalized to forskolin-induced cAMP increase),HCT116 PTEN null cells,detectable cAMP accumulation
C#Cc1cccc(Nc2ncnc3cc(OCCOC)c(OCCOC)cc23)c1 [erlotinib],alteration of the late response of the IGF1 DMR (signal at 50 min poststimulation),[3],increased in the dose-dependent manner
same,impact on the early P-DMR amplitude of the IGF1 DMR,[3],little impact
same,kinase inhibitor drug-induced DMR signal,[1]; HCT116 parental,very small DMR signals
same,kinase inhibitor drug-induced DMR signal,[2],very small DMR signals
same,alteration of the late response of the IGF1 DMR (signal at 50 min poststimulation),[4],increased in the dose-dependent manner
same,impact on the early P-DMR amplitude of the IGF1 DMR,[4],little impact
same,"potency to increase the late IGF1 response, PTEN-deleted vs parental cell line",[4],lower
COc1cc2ncnc(Nc3ccc(F)c(Cl)c3)c2cc1OCCCN1CCOCC1 [gefitinib],alteration of the late response of the IGF1 DMR (signal at 50 min poststimulation),[3],increased in the dose-dependent manner
same,impact on the early P-DMR amplitude of the IGF1 DMR,[3],little impact
same,alteration of the late response of the IGF1 DMR (signal at 50 min poststimulation),[4],increased in the dose-dependent manner
same,impact on the early P-DMR amplitude of the IGF1 DMR,[4],little impact
same,"potency to increase the late IGF1 response, PTEN-deleted vs parental cell line",[4],lower
Cc1cn(-c2cc(NC(=O)c3ccc(C)c(Nc4nccc(-c5cccnc5)n4)c3)cc(C(F)(F)F)c2)cn1 [nilotinib],sensitivity of kinase inhibitor drug-induced DMR to PTEN deletion,[2],sensitive
CO[C@H]1C[C@@H]2CC[C@@H](C)[C@@](O)(O2)C(=O)C(=O)N2CCCC[C@H]2C(=O)O[C@H]([C@H](C)C[C@@H]2CC[C@@H](OC(=O)C(C)(CO)CO)[C@H](OC)C2)CC(=O)[C@H](C)/C=C(\C)[C@@H](O)[C@@H](OC)C(=O)[C@H](C)C[C@H](C)/C=C/C=C/C=C/1C [temsirolimus],kinase inhibitor drug-induced DMR signal,[1]; HCT116 parental,detectable DMR
same,sensitivity of kinase inhibitor drug-induced DMR to PTEN deletion,[2],suppressed or decreased the kinetics
CS(=O)(=O)CCNCc1ccc(-c2ccc3ncnc(Nc4ccc(OCc5cccc(F)c5)c(Cl)c4)c3c2)o1 [lapatinib],kinase inhibitor drug-induced DMR signal,[1]; HCT116 parental,did not result in any detectable DMR
same,kinase inhibitor drug-induced DMR signal,[2],did not result in any detectable DMR
